# From patent US12569470B2, “Vasodilator and use thereof” (Bioradical Research Institute Corp., priority 2019, dated 2026)
# Assays:
# [1] = system: blood vessel of the mesentery; experiment: LPS-induced vascular disorder of the mesentery, bleeding and leukocyte rolling; type: in vivo, rat
# Description: Eight-week-old or older female rats (Wistar, body weight: approximately 200 g, n=1) were anesthetized by subcutaneous administration of urethane (1.75 g/kg body weight). The rats were then opened and fixed on a fixing table in such a manner that the mesentery of the rats was observable. After the fixing, the fixing table was placed under a microscope (Nikon OPTIphoto, produced by Nikon Corporation) so that the mesentery could be observed. In addition, a catheter was placed in the groin vein of the rat.
# 1μg/ml of lipopolysaccharide (LPS) (produced by Sigma-Aldrich Co., Ltd.) derived from Pseudomonas aeruginosa (ATCC27316) was added dropwise once (20 μl, 20 ng/sight) and allowed to stand for 30 minutes. Next, a saline solution containing BisEP-C3 prepared in the same manner as in Example 9 was rapidly administered intravenously via the catheter so as to be 1 mg/kg body weight. After the intravenous administration, the saline solution was administered continuously so as to be 1 mg/kg body weight per hour (0.15 ml/hour). […] In the obtained photograph, the area of the region where bleeding occurred (bleeding area) was detected based on the number of pixels, and then the proportion of the area (bleeding area proportion) occupied per visual field was calculated. […]
# [2] = NO-eliminating ability by ESR with NO donor NOC-7 and Carboxy-PTIO
# Method: It was examined whether the vasodilator of the present invention has NO-eliminating ability. Specifically, as to the NO generation reaction, NOC-7 of NO donor was used to examine whether the NO concentration is reduced in the presence of BisEP-C3. First, 20 μl of a BisEp-C3 solution was added to 140 μl of a phosphate buffer solution (pH 7.4) having a concentration of […] so as to achieve a predetermined concentration (0, 25, 50, 100, 200, 400, or 600 μmol/1), and further 20 μl of a spin-trapping agent (100 μmol/1), Carboxy-PTIO(2-(4-Carboxyphenyl)-4, 4, 5, 5-tetramethylimidazoline-1-oxyl-3-oxide, sodium salt, final concentration 10 μmol/1) solution and 20 μl of a NO donor solution (10 mmol/1NOC-7 (1-Hydroxy-2-oxo-3-(N-methyl-3-aminopropyl)-3-methyl-1-triazene, final concentration […])) were added and mixed. The NO donor solution was prepared using a sodium hydroxide solution having a concentration of 0.1 mmol/1. Then, after the mixing, the mixture was incubated at room temperature for 3 minutes, and the obtained reaction solution was measured under the following ESR measurement conditions 2. Then, the proportion of the decrease in the signal intensity was calculated as the NO-eliminating ability with the signal intensity of the sample with no BisEP-C3 (0 μmol/1) being 100%.
# ESR Measurement Conditions 2 […]
# [3] = system: rat auricular subcutaneous blood vessel; experiment: Vasodilation in vivo, blood vessel diameter after intravenous administration
# Method: Eight-week-old or older female rats (Wistar, body weight: approximately 200 g, n=1) were anesthetized by subcutaneous administration of urethane so as to be […] body weight. The hair of the auricles of the rats was then removed and the rats were fixed on a fixing table. After the fixing, the fixing table was placed under a microscope (Nikon OPTIphoto, produced by Nikon Corporation). In addition, a catheter was placed in the groin vein of the rat.
# BisEP-C3 was dissolved in a saline solution to achieve a concentration of 3 mg/ml. The resulting saline solution containing BisEP-C3 was administered intravenously via the catheter so as to be 3 mg/kg body weight. Then, the hemodynamic course of the rat auricular subcutaneous blood vessel was photographed and recorded using a microscope at a predetermined period (30, 60, 120 or 180 minutes) before and after the administration.
# The obtained images were classified into three blood vessel thicknesses (thick: 35-45 μm, medium: 15-20 μm, thin: 7-9 μm) based on the diameter of the blood vessel before administration. […] Further, for each selected site, the relative blood vessel diameter was calculated after the measurement of the blood vessel diameter, with the blood vessel diameter before administration being a reference (1). […] As a control, the blood vessel diameter was calculated in the same manner except that the saline solution was administered.
smiles,measurement,setting,value
"CCN1N=C(C)/C(=C\C=C\c2c(C)nn(CC)c2O)C1=O [BisEp-C3, 2,4-dihydro-4-[3-(1-ethyl-5-hydroxy-3-methyl-1H-pyrazol-4-yl)-2-propen-1-ylidene]-2-ethyl-5-methyl-3H-pyrazol-3-one]",bleeding area and bleeding area proportion,"[1]; LPS instillation, 1 mg/kg intravenously then 1 mg/kg per hour, up to 180 minutes, FIGS. 12 and 13",no bleeding was observed
same,rolling phenomena of leukocytes,"[1]; after LPS instillation, compared to the control",a large number of rolling phenomena of leukocytes were observed
same,NO-eliminating ability,"[2]; 0, 25, 50, 100, 200, 400, or 600 μmol/1, 3 minutes at room temperature, FIG. 14",eliminated NO in a concentration-dependent manner
same,superoxide decrease compared with NO-eliminating ability,"[2]; equal concentration, comparison with the superoxide test",the proportion of the decrease in the production amount of superoxide is larger than the NO-eliminating ability
same,relative value of the blood vessel diameter,"[3]; 3 mg/kg body weight intravenously, 30, 60, 120 or 180 minutes, versus saline control, FIG. 10",dilated at any time after administration as compared to the control
same,severity of dilatation by blood vessel size,"[3]; thick 35-45 μm, medium 15-20 μm, thin 7-9 μm, 3 mg/kg intravenously",remarkably observed in the smaller blood vessels
